Data published in patent US20260232851A1, “METHODS FOR THE DETECTION AND DIAGNOSIS OF CANCERS ASSOCIATED WITH OVEREXPRESSION OF PSMA RECEPTOR” (CLARITY PHARMACEUTICALS LIMITED, priority 2023, published 2026).
Entries after “also recorded” stand apart in the source; their conditions may differ.

How the values were obtained:
[1] = system: LNCap tumor; assay: Ex vivo tumor uptake in LNCap tumor bearing NSG mice
Text: Ex vivo tumor uptake expressed as percentage injected activitiy per gram of tissue (% lAg) (mean±/−SEM, n=3/group) in LNCap tumor bearing NSG mice following injection of either monomeric [^64Cu]Cu-SarPSMA (2 MBq, 0.9 nmol of peptide) or dimeric [^64Cu]Cu-Sar-bisPSMA (2 MBq, 0.2 nmol of peptide).

[2] = molecular target: T1, PSMA receptor (Homo sapiens, UniProt Q04609); assay: PET/CT lesion intensity (SUVmax, SUVmean, TTBR) in patients with untreated primary prostate cancer; assay type: in vivo; details: for SUVmax Median Difference / SUVmean Median Difference / TTBR Median Difference: ^64Cu vs ^68Ga; for Tumor to background ratio compared between ^64Cu-Sar-bisPSMA and ^68Ga-PSMA-11 (words): concordant lesions, FIG. 6; for Tumor to background ratio compared between ^64Cu-Sar-bisPSMA and ^68Ga-PSMA-11 (words) / SUVmean of lesions compared between ^64Cu-Sar-bisPSMA and ^68Ga-PSMA-11 (words) / SUVmax of lesions compared between ^64Cu-Sar-bisPSMA and ^68Ga-PSMA-11 (words): two readers; for SUVmean of lesions compared between ^64Cu-Sar-bisPSMA and ^68Ga-PSMA-11 (words) / SUVmax of lesions compared between ^64Cu-Sar-bisPSMA and ^68Ga-PSMA-11 (words): same subjects; for SUVmean of lesions compared between ^64Cu-Sar-bisPSMA and ^68Ga-PSMA-11 (words): FIG. 5; for SUVmax of lesions compared between ^64Cu-Sar-bisPSMA and ^68Ga-PSMA-11 (words): FIGS. 2, 4
T1 construct: localises at sites that overexpress the PSMA receptor and are indicative of a cancer; from tissue; host or cells: Primary prostate cancer and metastatic lesions (lymph node, bone, prostatic bed) in living patients
T1 sequence (Q04609 whole entry): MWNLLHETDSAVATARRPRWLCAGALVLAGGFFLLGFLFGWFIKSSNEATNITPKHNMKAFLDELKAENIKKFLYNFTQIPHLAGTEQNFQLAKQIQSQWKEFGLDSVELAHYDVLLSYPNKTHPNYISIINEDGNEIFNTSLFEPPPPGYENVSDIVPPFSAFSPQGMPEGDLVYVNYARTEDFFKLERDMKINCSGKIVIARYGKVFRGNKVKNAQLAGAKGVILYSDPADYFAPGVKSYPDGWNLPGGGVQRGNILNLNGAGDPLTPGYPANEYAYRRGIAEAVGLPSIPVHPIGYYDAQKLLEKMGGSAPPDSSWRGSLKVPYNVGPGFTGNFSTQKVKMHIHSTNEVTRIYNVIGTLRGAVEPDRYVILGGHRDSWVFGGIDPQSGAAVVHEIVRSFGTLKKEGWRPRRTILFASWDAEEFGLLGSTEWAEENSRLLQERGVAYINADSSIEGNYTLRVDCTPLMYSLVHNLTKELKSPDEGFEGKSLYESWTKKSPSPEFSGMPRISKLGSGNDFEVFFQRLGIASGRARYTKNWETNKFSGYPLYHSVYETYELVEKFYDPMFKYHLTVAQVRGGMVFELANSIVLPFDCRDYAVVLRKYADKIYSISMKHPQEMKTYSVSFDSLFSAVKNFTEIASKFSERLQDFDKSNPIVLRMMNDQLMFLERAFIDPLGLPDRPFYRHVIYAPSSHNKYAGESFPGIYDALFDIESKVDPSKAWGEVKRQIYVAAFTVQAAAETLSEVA
Procedure: Patients with untreated, histopathology-proven, intermediate- to high-risk PC, planned for radical prostatectomy underwent ^68Ga-PSMA-11 PET/CT per institutional practice and were subsequently allocated to 1 out of 3 dose cohorts (1:1:3) to receive either 100 MBq, 150 MBq or 200 MBq of ^64Cu-SAR-bisPSMA, respectively. The specified dose of ^64Cu-Sar-bisPSMA was administered to each patient as a single bolus IV injection. […] PET/CT scans at other times after injection of the compound were acquired as required.
Patients were scanned using the standard clinical whole-body PET/CT acquisition protocol defined for each clinical site and in accordance with the Image Acquisition Manual, which contains details of scan acquisition, processing parameters and quality assurance procedures. The same scanner was used for each visit. Typical imaging acquisition parameters are below:
Two independent, blinded, central readers assessed the detection of primary PC on the 200 MBq ^64Cu-SAR-bisPSMA PET/CTs as the primary endpoint. To compare the intensity of lesions on ^68Ga-PSMA-11 and ^64Cu-SAR-bisPSMA PET, both readers determined the SUVs (SUVmax, SUVmean) and tumour-to-background ratio (ratio of lesion SUVmax and background SUVmean) in up to 5 concordant lesions between ^68Ga-PSMA-11 and ^64Cu-SAR-bisPSMA PET/CT as an exploratory endpoint.
Tables 1 and 2 below compare SUV parameters obtained from PET/CT images after administration of ^68Ga-PSMA-11 and a dose of 200 MBq of ^64Cu-SAR-bisPSMA from each reader.
Tables 3 and 4 below compare SUV parameters obtained from PET/CT images after administration of ^68Ga-PSMA-11 (200 MBq) and ^64Cu-SAR-bisPSMA (200 MBq) from each reader.

[3] = Table 1, first reader, 200 MBq ^64Cu-SAR-bisPSMA, N=17
[4] = Table 2, second reader, 200 MBq ^64Cu-SAR-bisPSMA, N=13

Substance: Sar-bisPSMA [^64Cu-SAR-bisPSMA]
- Amount retained at the tumor site relative to ^64Cu-SarPSMA (FIG. 1) ([1]; 6 and 24 hours after administration): far greater
- Ex vivo tumor uptake relative to monomeric ^64Cu-Sar-PSMA (FIG. 1) ([1]; 1 hour after administration, 2 MBq, n=3/group): approximately double
- Uptake and retention at tumors, dimer versus monomer (FIG. 1) ([1]; mouse, in vivo): higher uptake and retention
- SUVmax Max [2, 3]: 100
- SUVmax Median [2, 3]: 31.40
- SUVmax Min [2, 3]: 8
- SUVmean Max [2, 3]: 69.9
- SUVmean Mean [2, 3]: 27.25
- SUVmean Median [2, 3]: 21.76
- SUVmean Min [2, 3]: 5.5
- TTBR (Tumour-to-Background Ratio) Mean [2, 3]: 77.25
- TTBR Max [2, 3]: 227.3
- TTBR Median [2, 3]: 49.07
- TTBR Min [2, 3]: 10.3
- SUVmax Median Difference ([2]; Table 1, first reader, N=17): 14.85
- SUVmean Median Difference ([2]; Table 1, first reader, N=17): 9.64
- TTBR Median Difference ([2]; Table 1, first reader, N=17): 27.15
- SUVmax Mean ([2]; Table 1, first reader, ^68Ga-PSMA-11 vs 200 MBq ^64Cu-SAR-bisPSMA PET/CT, concordant lesions averaged per participant, N=17): 40.28
- SUVmax Max [2, 4]: 100
- SUVmax Median [2, 4]: 41.00
- SUVmax Min [2, 4]: 6.1
- SUVmean Max [2, 4]: 69.9
- SUVmean Mean [2, 4]: 31.78
- SUVmean Median [2, 4]: 28.07
- SUVmean Min [2, 4]: 4.4
- TTBR (Tumour-to-Background Ratio) Mean [2, 4]: 86.40
- TTBR Max [2, 4]: 212.8
- TTBR Median [2, 4]: 76.34
- TTBR Min [2, 4]: 6.7
- SUVmax Median Difference ([2]; Table 2, second reader, N=13): 27.03
- SUVmean Median Difference ([2]; Table 2, second reader, N=13): 18.44
- TTBR Median Difference ([2]; Table 2, second reader, N=13): 45.37
- SUVmax Mean ([2]; Table 2, second reader, ^68Ga-PSMA-11 vs 200 MBq ^64Cu-SAR-bisPSMA PET/CT, concordant lesions averaged per participant, N=13): 47.37
- SUVmax Max ([2]; Table 3, first reader, N=28): 100.00
- SUVmax Median ([2]; Table 3, first reader, N=28): 30.26
- SUVmax Min ([2]; Table 3, first reader, N=28): 8.00
- SUVmean Max ([2]; Table 3, first reader, N=28): 69.90
- SUVmean Mean ([2]; Table 3, first reader, N=28): 27.41
- SUVmean Median ([2]; Table 3, first reader, N=28): 21.20
- SUVmean Min ([2]; Table 3, first reader, N=28): 5.40
- TTBR (Tumour-to-Background Ratio) Mean ([2]; Table 3, first reader, N=28): 83.38
- TTBR Max ([2]; Table 3, first reader, N=28): 294.10
- TTBR Median ([2]; Table 3, first reader, N=28): 53.55
- TTBR Min ([2]; Table 3, first reader, N=28): 10.30
- SUVmax Median Difference ([2]; Table 3, first reader, N=28): 14.23
- SUVmean Median Difference ([2]; Table 3, first reader, N=28): 9.26
- TTBR Median Difference ([2]; Table 3, first reader, N=28): 27.94
- SUVmax Mean ([2]; Table 3, first reader, ^68Ga-PSMA-11 (200 MBq) vs ^64Cu-SAR-bisPSMA (200 MBq) PET/CT, lesions averaged per participant, N=28): 41.66
- SUVmax Max ([2]; Table 4, second reader, N=16): 100
- SUVmax Median ([2]; Table 4, second reader, N=16): 41.66
- SUVmax Min ([2]; Table 4, second reader, N=16): 6.1
- SUVmean Max ([2]; Table 4, second reader, N=16): 69.9
- SUVmean Mean ([2]; Table 4, second reader, N=16): 33.24
- SUVmean Median ([2]; Table 4, second reader, N=16): 28.4
- SUVmean Min ([2]; Table 4, second reader, N=16): 4.4
- TTBR (Tumour-to-Background Ratio) Mean ([2]; Table 4, second reader, N=16): 93.86
- TTBR Max ([2]; Table 4, second reader, N=16): 243.9
- TTBR Median ([2]; Table 4, second reader, N=16): 78.37
- TTBR Min ([2]; Table 4, second reader, N=16): 6.7
- SUVmax Median Difference ([2]; Table 4, second reader, N=16): 27.99
- SUVmean Median Difference ([2]; Table 4, second reader, N=16): 18.78
- TTBR Median Difference ([2]; Table 4, second reader, N=16): 46.93
- SUVmax Mean ([2]; Table 4, second reader, ^68Ga-PSMA-11 (200 MBq) vs ^64Cu-SAR-bisPSMA (200 MBq) PET/CT, lesions averaged per participant, N=16): 49.73
- Tumor to background ratio compared between ^64Cu-Sar-bisPSMA and ^68Ga-PSMA-11 (words) ([2]; listed as 64Cu-Sar-bisPSMA): higher
- Tumor to background ratio compared between ^64Cu-Sar-bisPSMA and ^68Ga-PSMA-11 (words) ([2]; listed as 64Cu-SarbisPSMA): higher tumour to background ratio
- SUVmean of lesions compared between ^64Cu-Sar-bisPSMA and ^68Ga-PSMA-11 (words) [2]: consistently higher
- SUVmean of lesions compared between ^64Cu-Sar-bisPSMA and ^68Ga-PSMA-11 (words) ([2]; listed as 64Cu-Sar-bis-PSMA): higher SUVmean
- SUVmean of lesions compared between ^64Cu-Sar-bisPSMA and ^68Ga-PSMA-11 (words) ([2]; listed as 64Cu-Sar-bisPSMA): greater
- SUVmax of lesions compared between ^64Cu-Sar-bisPSMA and ^68Ga-PSMA-11 (words) [2]: consistently higher
- SUVmax of lesions compared between ^64Cu-Sar-bisPSMA and ^68Ga-PSMA-11 (words) ([2]; listed as 64Cu-Sar-bisPSMA): higher SUVmax; also recorded: greater
- SUVmax of lesions compared between ^64Cu-Sar-bisPSMA and ^68Ga-PSMA-11 (words) ([2]; listed as 64Cu-SarbisPSMA): higher SUVmax
